Here are results for 18 compounds from patent US11059833B2, “BCKDK inhibitors” (Pfizer Inc., priority 2019, dated 2021).

Where two headings read alike, the source gives them in different places.

The subject of test [1] is phosphorylation of S293 BCKDH. The experiment in a line: Phospho BCKDHA AlphaLISA in human skeletal myocytes. Type of test: cell-based. The note with it: 1 h, 60 minutes, geometric mean. The protocol:
Prior to conducting the assay, BCKDH antibodies (Bethyl A303-790A) were biotinylated using the ChromaLink™ One-Shot Antibody Biotinylation Kit B-9007-009K and phospho Ser293 BCKDHA antibodies (Bethyl A304-672A) were directly conjugated to AlphaLISA Acceptor Beads (custom conjugation performed by Perkin Elmer's Lance/Delfia Custom Services, Boston Mass.). Human skeletal myocytes (Gibco A11440) were plated in a 384 well plate at a density of 7500 live cells/well and grown in skeletal muscle growth media containing the media supplement and chick embryo extract (Promocell C-23060 and C-23160, MP92850145). After overnight incubation, media was removed, and BCKDK inhibitors were added in assay media (growth media diluted 10-fold in PBS). After 60 minutes, the media was removed, the cells were washed with PBS and lysed in 10 μL of buffer (Cell Signaling #9803) containing 2 nM biotinylated total BCKDH antibodies. Samples were incubated for 60 minutes, and 5 μL of AlphaLISA acceptor beads conjugated with phospho-S293 BCKDH antibodies were added 1× Alpha buffer. After a 60 minute incubation, 5 μL streptavidin donor beads (40 μg/μL) beads were added in 1× Alpha buffer while protecting from light. Fluorescence was emitted when the phospho and total BCKDH antibodies were within proximity, signifying phosphorylation of S293 BCKDH. Fluorescence was monitored on the Envision plate reader. The zero percent effect was determined from DMSO treatment and the maximal effect was assessed relative to the BCKDK inhibitor BT2. IC50 curves were generated using ActivityBase software (IDBS, Boston Mass.).
For orientation: Bead proximity is the source of the signal in Alpha formats.

The test system of test [2] is Dahl salt sensitive male rats. In words: Heart failure rat model (high salt diet). Type of test: in vivo. To be noted: 100 mg/kg PO once daily. On the procedure: Dahl salt sensitive male rats (Charles River strain SS/JrHsdMcwiCrl) were fed control diet or 6% high salt diet (iD03121701-AIN-76a rodent diet with added 6% NaCl) for 21 weeks in total. At week 5, the high salt diet-fed rats were dosed PO with 100 mg/kg BT2 or vehicle once daily for the last 16 weeks of study. Echocardiography was performed at week 18 (myocardial performance index (MPI): control diet 0.567±0.034, high salt+vehicle 0.810±0.039, high salt+BT2 0.660±0.030; Isovolumic relaxation time (IVRT): control diet 23.154±0.60 ms, high salt+vehicle 36.507±2.20 ms, high salt+BT2 31.605±1.78 ms; Intraventricular septal thickness at diastole (IVDd): control 2.03±0.088 mm, high salt+vehicle 2.877±0.110 mm, high salt+BT2 2.489±0.089 mm). NT-pro-BNP (MSD K153JKD; control […], high salt+vehicle 1003.0±200.8 μg/mL, high salt+BT2 503.4±84.96 μg/mL), and proANP (MSD K153MBD; control 33.50±5.4 ng/mL, high salt 65.19±8.3 ng/mL, high salt+BT2 38.81±7.0 ng/mL) levels were measured in plasma using MSD assays at the terminal time point. Heart weights were measured at euthanasia and normalized to tibia length (heart/tibia control 0.033±0.001 g/mm; high salt+vehicle 0.042±0.001 g/mm, high salt+BT2 0.038±0.001 g/mm).

The target in a further test is T1, human BCKDK (Homo sapiens, UniProt O14874).
T1 construct: human BCKDK (residues 31-412 of the protein pre-processing); 6xHis (N, cleaved yes); MBP (N, cleaved yes); TEV protease site (ENLYFQG) (N, cleaved yes); made in house; host or cells: BL21(DE3) E. coli, co-expressed with GroEL-GroES
The experiment in a line: In Vitro FRET (TR-FRET) BCKDK activity assay, phosphorylation of BCKDHE1α-E2 fusion substrate. The format is biochemical. The protocol:
For lipoylation, fusion substrate was incubated with LpIA at a 10:1 (substrate:LplA) ratio in 20 mM sodium phosphate pH 7.4, 6 mM MgCl2, 4 mM ATP, 2 mM DTT, 3 mM DL-6,8-thioctic acid at 37° C.
BCKDK activity was monitored by phosphorylation of a HIS-tagged fusion BCKDHE1α-E2 substrate protein as described above and was detected using a time resolved-fluorescence resonance energy transfer (TR-FRET) assay system. Compounds were spotted into a 384 well plate, and purified human BCKDK protein was added to the plated compound. […] The reaction was terminated with EDTA. […] Signal intensity was proportional to the level of BCKDK-mediated substrate phosphorylation. Reactions were normalized to zero percent effect with DMSO and one hundred percent effect with 600 μM Radicicol, a known BCKDK inhibitor. IC50 curves were generated using ABASE software (IDBS, Boston Mass.).

Test [3] deals with Mice fed 60% high fat diet. In words: Diabetic animal model: fasting glucose and oral glucose tolerance test. The format is in vivo. To be noted: for Area under the curve for the glucose tolerance test as percent of vehicle treated group: 1 g/kg dextrose; for fasting plasma glucose levels: high fat diet mice, mean±SEM. On the procedure: Blood glucose was measured 15, 30, 60, and 120 minutes after the gavage, and the data were plotted and analyzed as area under the curve using GraphPad Prism 8.0 (GraphPad Software, La Jolla, Calif.). Blood was concomitantly collected in EDTA tubes at the 0, 15 and 30 minute time points, spun down at 10K RPM for 10 minutes. […] Area under the curve for the glucose tolerance test as percent of vehicle treated group was 100.0±3 (vehicle, n=29), 100±4 (20 mg/kg, n=18), 87±2 (60 mg/kg, n=30), 78±2 (180 mg/kg, n=16).

[4] abbreviates: purified human BCKDK, 15 μM ATP, geometric mean, read-out: In Vitro FRET IC50.

For orientation: IC50 means the concentration needed to halve the response being measured. As to `O=C(O)c1sc2cc(Cl)ccc2c1Cl` [BT2, 3,6-dichloro-1-benzothiophene-2-carboxylic acid], the 50% inhibitory concentration (IC50) in test [1] was 4.5 µM; at human BCKDK, 1.3 µM. For the same compound, the “heart weight normalized to tibia length (heart/tibia)” value in test [2] (at euthanasia (high salt+vehicle 0.042±0.001, control 0.033±0.001)) came out at 0.038±0.001 g/mm. Besides, in test [2] (echocardiography at week 18 (high salt+vehicle 0.810±0.039, control diet 0.567±0.034)), the “myocardial performance index (MPI)” value is 0.660±0.030. Besides, in test [2] (echocardiography at week 18 (high salt+vehicle 2.877±0.110, control 2.03±0.088)), the “Intraventricular septal thickness at diastole (IVDd)” value is given as 2.489±0.089 mm. The “Isovolumic relaxation time (IVRT)” value in test [2] (echocardiography at week 18 (high salt+vehicle 36.507±2.20, control diet 23.154±0.60)) was found to be 31.605 ± 1.78 ms. Further, the “proANP level in plasma” value in test [2] (terminal time point (high salt 65.19±8.3, control 33.50±5.4)) was 38.81 ± 7.0 ng/mL. In addition, in test [2] (terminal time point (high salt+vehicle 1003.0±200.8, control 294.9±26.04)), the “NT-pro-BNP level in plasma” value was 503.4 ± 84.96 µg/mL.
Turning to `O=C(O)c1sc2cc(F)ccc2c1Cl` [BT2F, 3-chloro-6-fluoro-1-benzothiophene-2-carboxylic acid, reference compound], the IC50 on human BCKDK (setting [4]) came to 0.81 µM.
On to `O=C(O)c1sc2cc(F)sc2c1Cl` [Example 1, 3-Chloro-5-fluorothieno[3,2-b]thiophene-2-carboxylic acid], for which the “Area under the curve for the glucose tolerance test as percent of vehicle treated group” value in test [3] (20 mg/kg PO, n=18 (vehicle 100.0±3)) is reported as 100±4% of vehicle treated group; in test [3] (60 mg/kg PO, n=30 (vehicle 100.0±3)), 87±2% of vehicle treated group; in test [3] (180 mg/kg PO, n=16 (vehicle 100.0±3)), 78±2% of vehicle treated group. Moreover, the “fasting plasma glucose levels” value turned out to be 230 ± 8 mg/dL in test [3] (20 mg/kg PO, n=18 (vehicle 237±5)); 221 ± 4 mg/dL in test [3] (60 mg/kg PO, n=40 (vehicle 237±5)); 206 ± 5 mg/dL in test [3] (180 mg/kg PO, n=19 (vehicle 237±5)). In test [1], this compound registered an IC50 of 0.72 µM.
Take `O=C(O)c1sc2cc(F)sc2c1Br` [Example 2, 3-Bromo-5-fluorothieno[3,2-b]thiophene-2-carboxylic acid]: the IC50 in test [1] worked out at 1.5 µM; at human BCKDK (setting [4]) it was 0.12 µM.
Consider `O=C(O)c1sc2cc(F)sc2c1C(F)F` [Example 3, 3-(Difluoromethyl)-5-fluorothieno[3,2-b]thiophene-2-carboxylic acid], for which the IC50 in test [1] worked out at 1.8 µM; on human BCKDK (setting [4]), 0.065 µM.
In the same order, the values of `O=C(O)c1cc2sc(F)c(F)c2s1` [Example 4, 5,6-Difluorothieno[3,2-b]thiophene-2-carboxylic acid] are 0.39 µM and 0.058 µM.
On to `O=C(O)c1sc2cc(F)sc2c1F` [Example 5, 3,5-Difluorothieno[3,2-b]thiophene-2-carboxylic acid], for which the values for the IC50 (in test [1]; at human BCKDK (setting [4])) were 0.41 µM and 0.14 µM, respectively.
Take `Cc1c(F)sc2cc(C(=O)O)sc12` [Example 6, 5-fluoro-6-methylthieno[3,2-b]thiophene-2-carboxylic acid]: the IC50 in test [1] turned out to be 4.2 µM; at human BCKDK (setting [4]), 0.23 µM.
In the same order, the values of `O=C(O)c1sc2cc(Cl)sc2c1F` [Example 7, 5-chloro-3-fluorothieno[3,2-b]thiophene-2-carboxylic acid] are 1.1 µM and 0.26 µM.
For `O=C(O)c1sc2c(F)c(F)sc2c1Cl` [Example 8, 3-chloro-5,6-difluorothieno[3,2-b]thiophene-2-carboxylic acid], the half-maximal inhibitory concentration (IC50) in test [1] was 1.8 µM; at human BCKDK (setting [4]), 0.26 µM.
For the compound `Cc1c(C(=O)O)sc2cc(F)sc12` [Example 9, 5-fluoro-3-methylthieno[3,2-b]thiophene-2-carboxylic acid], the IC50 in test [1] was 1.6 µM; at human BCKDK (setting [4]) it was 0.28 µM.
On to `O=C(O)c1cc2sc(F)c(Cl)c2s1` [Example 10, 6-chloro-5-fluorothieno[3,2-b]thiophene-2-carboxylic acid], for which the IC50 turned out to be 3.4 µM in test [1] and 0.33 µM at human BCKDK (setting [4]).
As for `O=C(O)c1sc2cc(Cl)sc2c1C(F)F` [Example 11, 5-chloro-3-(difluoromethyl)thieno[3,2-b]thiophene-2-carboxylic acid], the IC50 was found to be 2.2 µM in test [1] and 0.37 µM on human BCKDK (setting [4]).
Consider `O=C(O)c1cc2sc(Cl)c(F)c2s1` [Example 12, 5-chloro-6-fluorothieno[3,2-b]thiophene-2-carboxylic acid], for which the values for the IC50 (in test [1]; at human BCKDK (setting [4])) were 1.2 µM and 0.4 µM, respectively.
Take `O=C(O)c1sc2c(F)c(Cl)sc2c1F` [Example 13, 5-chloro-3,6-difluorothieno[3,2-b]thiophene-2-carboxylic acid]: the half-inhibitory concentration (IC50) stood at 1.9 µM in test [1] and 0.47 µM at human BCKDK (setting [4]).
As to `Cc1c(C(=O)O)sc2cc(Cl)sc12` [Example 14, 5-chloro-3-methylthieno[3,2-b]thiophene-2-carboxylic acid], the concentration for half-maximal inhibition (IC50) at human BCKDK (setting [4]) was determined as 0.8 µM.
Consider `O=C(O)c1sc2cc(Cl)sc2c1Br` [Example 15, ammonium 3-bromo-5-chlorothieno[3,2-b]thiophene-2-carboxylate], for which the IC50 was 2.8 µM in test [1] and 0.84 µM at human BCKDK (setting [4]).
In the case of `CCc1c(C(=O)O)sc2cc(Cl)sc12` [Example 16, 5-chloro-3-ethylthieno[3,2-b]thiophene-2-carboxylic acid], the IC50 in test [1] was 3.6 µM; at human BCKDK (setting [4]), 0.88 µM.
